# Laboratory results reported in patent US11993590B2, “Pyranone compounds useful to modulate OMA1 protease” (712 North Inc., priority 2016, dated 2024).
# Several values for one entry are separate records, joined by “and”; a condition that tells them apart may be missing. Equal entries are not always repeated. Entries after “also recorded” stand apart in the source; their conditions may differ. Where two headings read alike, the source gives them in different places.
# How the values were obtained:
# OMA1 [1] = assay: OMA1 antagonist test: CCCP-induced OPA1 cleavage in HEK293T cells, OPA1 Western blot; assay type: cell-based, human; details: for proteolytic cleavage of large OPA1 isoforms upon CCCP: 2 hours before 10 μM CCCP for 30 min
# Description: HEK293T cells were cultured and maintained in Dulbecco's Modified Eagle's Medium supplemented with 10% fetal bovine serum (FBS) and 2 mM […] in a 95% air-5% CO2 humidified atmosphere at 37° C. To test potential OMA1 antagonists, cells were seeded in 24-well plates and incubated over night to achieve around 90% confluency. For experiments the culture medium was replaced with Minimal Essential Medium and cells were pre-incubated with variable concentrations of the different test-compounds for 2 hours in a 95% air-5% CO2 humidified atmosphere at 37° C. After 2 hours, OMA1 protease was activated through the addition of carbonyl cyanide m-chlorophenyl hydrazone (CCCP; 10 μM final concentration) for 30 min in the presence of different concentrations of compounds to be tested. After 30 minutes, cells were immediately placed on ice, the medium removed, and cells harvested through addition of 100 μl RIPA buffer supplemented with protease inhibitor cocktail. Samples were separated on 8% tris-glycine gels and transferred onto nitro-cellulose membranes by Wester blotting. Membranes were immunolabeled with anti-OPA1 Antibodies (1:1,000) and with goat-anti-mouse Alkaline Phosphatase conjugated secondary antibodies (1:5,000). OPA1 protein was visualized with NBT/BCIP between 5 and 15 minutes before the reaction was stopped with an excess of distilled water.
# CCCP is a potent mitochondrial oxidative phosphorylation uncoupler that activates OMA1 and creates conditions that allow OPA1 cleavage to occur.
# OMA1 [2] = assay: OMA1 agonist test: CCCP threshold of OMA1 activation/OPA1 cleavage in HEK293T cells; assay type: cell-based, human
# OMA1 [3] = assay: OPA1-Western blot of Hek293T cells incubated with tipranavir, OMA1 activated with CCCP or sorafenib; assay type: cell-based, human
# Description: FIG. 28. […] OMA1 was activated with 3 μM CCCP for 30 minutes.
# FIG. 29. Tipranavir can activate OMA1 at concentrations above 20 μM. […] OMA1 was then activated with 4 μM CCCP for 30 minutes in the indicated samples.
# FIG. 30. […] OMA1 was then activated with either 3 μM CCCP or 30 μM sorafenib (SFB) for 30 minutes in the indicated samples.
# Experimentally, OMA1 can be activated in cellular assays by the mitochondrial uncoupler [(3-chlorophenyl)hydrazono]propanedinitrile (CCCP).
# Example 9. Tipranavir can activate OMA1 at concentrations above 20 μM. To further determine tipranavir's effect on OPA1, I incubated Hek293T cells for an hour with low doses of 0 μM, 20 μM and 40 μM tipranavir (FIG. 29).
# Example 10. 100 μM tipranavir can inhibit OPA1 cleavage upon CCCP-treatment and upon sorafenib treatment. […] To investigate whether 100 μM tipranavir can inhibit CCCP-induced OPA1-cleavage or OPA1-cleavage induced by other agents as well, I incubated Hek293T cells for an hour with low doses of 0 μM, 50 μM or 100 μM tipranavir before activating OMA1 with either 3 μM CCCP or 30 μM sorafenib (see FIG. 30).
# OMA1 [4] = details: 1% Isoflurane, 90 minutes twice daily, cited from earlier work
# OMA1 [5] = assay: OMA1 gene expression micro-arrays in rat brain; assay type: in vivo; details: 10 exposures
# Description: Rats were exposed to 1% Isoflurane for 90 minutes twice daily for a total of 5 or 10 exposures, after which animals were sacrificed and brain samples analyzed by gene expression micro-arrays (Pan et al. 2006).
# OMA1 [6] = assay: OMA1 gene expression microarray in RS4.11 MLL leukemia cells; assay type: cell-based, human; details: RS4.11 cells, 10 μM SB216763, 20 hours
# Description: Human MLL leukemia RS4.11 cells were cultured without or with 10 μM SB216763 for 20 hours (Wang et al. 2010). […] SB216763 is a kinase inhibitor and the finding that SB216763 can increase OMA1 levels was unexpected and is non-obvious to a person skilled in the arts. In context of the present invention SB216763 thus represents an agonist of OMA1 and/or an oligomeric complex comprising OMA1 as defined above. Accordingly, SB216763 represents a medical intervention in particular for the treatment, prevention and/or amelioration of a disorder or disease correlated with mitochondrial stress or dysfunction, a mitochondrial disorder or disease, or a disorder or disease characterized by OPA1 alterations.
# Referring to FIG. 23, the GSK-3 inhibitor SB216763 (CAS #280744-09-4) represents an agonist of OMA1. […] RS4.11 cells were cultured for 20 hours without or with 10 μM SB216763, after which mRNA was isolated and analyzed by gene expression microarrays. Controls expressed OMA1 at 8.10 (±0.01 S.D.) and SB216763 treated cells expressed OMA1 at 8.7 (±0.18 S.D.).
# OMA1 [7] = details: RS4.11 cells, 10 μM SB216763, 20 hours; cited from earlier work
# OMA1 [8] = assay: OMA1 gene expression microarray in KMH2 cells; assay type: cell-based, human; details: 20 mM glucosamine, 24 hours
# Description: Human malignant lymphocytes (KMH2 cells) were cultured without or with 20 mM glucosamine (Carvalho et al. 2014). After 24 hours mRNA was isolated and analyzed by gene expression microarrays. Controls expressed OMA1 at 7.31 (±0.08 S.D.) and glucosamine treated cells expressed OMA1 at 6.69 (±0.06 S.D.). Glucosamine is a dietary supplement and its effects on mitochondria are known to a person skilled in the arts (Carvalho et al. 2014; Bond and Hanover 2015; Tan et al. 2017). […] In context of the present invention glucosamine thus represents an antagonist of OMA1 and/or an oligomeric complex comprising OMA1 as defined above. Accordingly, glucosamine represents a medical intervention in particular for the treatment, prevention and/or amelioration of a disorder or disease correlated with mitochondrial stress or dysfunction, a mitochondrial disorder or disease, or a disorder or disease characterized by OPA1 alterations.
# Referring to FIG. 21, the dietary supplement glucosamine (CAS #3416-24-8) represents an antagonist of OMA1. […] KMH2 cells were cultured for 24 hours without or with 20 mM glucosamine, after which mRNA was isolated and analyzed by gene expression microarrays. Controls expressed OMA1 at 7.31 (±0.08 S.D.) and glucosamine treated cells expressed OMA1 at 6.69 (±0.06 S.D.).
# OMA1 [9] = details: KMH2 cells, 20 mM glucosamine, 24 hours; cited from earlier work
# OPA1 = details: cells cultured with the compound; cited from earlier work
compound,measurement,setting,value
CC(C)ON(CC(=O)NO)S(=O)(=O)c1ccc(-c2ccccc2)cc1 [ARP100],proteolytic cleavage of large OPA1 isoforms upon CCCP,OMA1 [1]; 70 μM,all OPA1 isoforms including the large OPA1-L1 and OPA1-L2 isoforms were readily detectable; also recorded: The large OPA1-L1 and OPA1-L2 isoforms were still readily detectable
"N#CC(C#N)=NNc1cccc(Cl)c1 [CCCP, carbonyl cyanide m-chlorophenyl hydrazone]",OPA1 processing by CCCP alone,"OMA1 [2]; 0 μM, 3 μM and 5 μM CCCP, untreated (vehicle-only) cells",had no effect on OPA1 processing in untreated cells
same,OPA1 cleavage / OMA1 activation by CCCP alone,"OMA1 [2]; 7 μM CCCP, untreated (vehicle-only) cells",OPA1 was cleaved only at the highest concentration of 7 μM CCCP; also recorded: OMA1 was activated at the highest concentration of 7 μM CCCP
same,OMA1 activation / OPA1 cleavage by CCCP alone,"OMA1 [1]; 10 μM CCCP, 30 minutes","resulted in cleavage of both large OPA1-L1 and OPA1-L2 isoforms; also recorded: could activate OMA1, which resulted in the cleavage of the OPA1-L1 and OPA1-L2 isoforms"
same,L-OPA1 hydrolysis by CCCP alone,"OMA1 [3]; 3 μM CCCP, 30 minutes",all L-OPA1 isoforms are hydrolyzed upon CCCP treatment
FC(F)OC(Cl)C(F)(F)F (stereo not shown) [Isoflurane],OMA1 expression level in rat brain,OMA1 [4]; 5 exposures,19.1 (±3.4 S.D.)
same,OMA1 expression level in rat brain,OMA1 [4]; 10 exposures,29.3 (±6.3 S.D.)
same,increase of OMA1 gene expression in rat brain,OMA1 [5],180% and 280%
Cn1cc(C2=C(c3ccc(Cl)cc3Cl)C(=O)NC2=O)c2ccccc21 [SB216763],increase of OMA1 gene expression levels,OMA1 [6],7.6%
same,OMA1 expression level,OMA1 [7],8.7 (±0.18 S.D.)
O=S(=O)(CC1CS1)c1ccc(Oc2ccccc2)cc1 (stereo not shown) [SB-3CT],OPA1 cleavage without CCCP,"OMA1 [2]; 100 μM SB-3CT, 0 μM CCCP",did not show OPA1 alterations; also recorded: did not induce OPA1 cleavage without CCCP
same,OPA1 cleavage / OMA1 activation at low CCCP,"OMA1 [2]; 100 μM SB-3CT, 3 μM and 5 μM CCCP for 20 minutes",caused OPA1 cleavage to occur already at 3 μM and 5 μM CCCP; also recorded: OMA1 was already activated at lower concentrations of 3 μM and 5 μM CCCP
O=C(O)CNC(=O)C(CS)Cc1ccccc1 (stereo not shown) [Thiorphan],proteolytic cleavage of large OPA1 isoforms upon CCCP,OMA1 [1]; 100 μM,all OPA1 isoforms including the two large OPA1-L1 and OPA1-L2 isoforms were readily detectable; also recorded: The large OPA1-L1 and OPA1-L2 isoforms were still readily detectable
N[C@H]1C(O)O[C@H](CO)[C@@H](O)[C@@H]1O (stereo partly shown) [glucosamine],decrease of OMA1 gene expression levels,OMA1 [8],8.5%
same,OMA1 expression level,OMA1 [9],6.69 (±0.06 S.D.)
c1cnc2c(c1)ccc1cccnc12 [phenanthroline],OPA1 levels and OPA1L/OPA1S isoforms,OPA1,an increase in the OPA1L isoform
same,proteolytic cleavage of large OPA1 isoforms upon CCCP,OMA1 [1]; 500 μM,The large OPA1-L1 and OPA1-L2 isoforms were still readily detectable; also recorded: inhibited proteolytic cleavage of OPA1 by OMA1
CNC(=O)c1cc(Oc2ccc(NC(=O)Nc3ccc(Cl)c(C(F)(F)F)c3)cc2)ccn1 [sorafenib],OMA1 activation / OPA1 cleavage by sorafenib alone,"OMA1 [3]; 30 μM sorafenib, 30 minutes",activate OMA1 and lead to OPA1 cleavage similar to CCCP
CCC[C@@]1(CCc2ccccc2)CC(O)=C([C@H](CC)c2cccc(NS(=O)(=O)c3ccc(C(F)(F)F)cn3)c2)C(=O)O1 [tipranavir],concentration at which tipranavir can activate OMA1,"OMA1 [3]; Hek293T cells, 1 hour",above 20 μM
